From patent US12441736B2, “KIF18A inhibitors” (AMGEN INC., priority 2018, dated 2025)

Target: T1, Recombinant human KIF18A (1-467 His-tagged) protein (Homo sapiens, UniProt Q8NI77)
T1 construct: Recombinant human KIF18A (1-467 His-tagged) protein; His; made in house
Assay: KIF18A Enzyme Assay: microtubule-stimulated ATPase activity (ADP-Glo)
Format: biochemical
Settings: 30 nM KIF18A, 30 μg/mL pig microtubules, 75 μM ATP, ADP-Glo luminescence
Source text: KIF18A Enzyme Assay: Microtubule-stimulated ATPase activity assay is used to measure KIF18A enzyme activity after treatment with compound. Compounds were 2-fold serially diluted in DMSO (Sigma Inc) over 22-point concentration range. Recombinant human KIF18A (1-467 His-tagged) protein was expressed using a baculovirus system and purified by affinity chromatography by Amgen Inc. Concentrations of KIF18A protein, microtubules (MT), and ATP in the reaction were optimized for standardized homogenous enzyme assay using ADP-Glo™ Kinase/ATPase Assay Kit (Promega Inc). The assay measures ADP formed from the ATPase reaction. Prepare reaction buffer [(15 mM Tris, pH 7.5 (Teknova Inc), 10 mM MgCl2 (IT Baker Inc), 0.01% Pluronic F-68 (Life Technologies Inc), 1 μM Taxol (Cytoskeleton Inc), and 30 μg/mL pig microtubules (Cytoskeleton Inc)]. Add compound and KIF18A protein (30 nM) to prepared reaction buffer and incubated for 15 minutes at room temperature, next add ATP (at Kin, 75 μM) to the reaction mixture and incubated for an additional 15 minutes at room temperature. Mix 5 μl of ADP-Glo™ Reagent and 2.5 μl of the reaction mixture and incubate for 40 minutes at room temperature. Add 10 μl ADP-Glo™ Detection Reagent and incubate for 40 minutes at room temperature. Read luminescence using EnVision microplate reader with ultra-luminescence module (Perkin Elmer Inc). Concentration-response curve-fitting and IC50 determination was performed using Genedata Screener Software (Standard 15.0.1, Genedata Inc) with a four-parameter logistic regression fit model.
Table A provides data for compounds exemplified in the present application and priority document thereof, as representative compounds of the present invention, as follows: chemical name (as named by either ACD software or ChemDraw (Professional 15.0)) and biological data (IC50 in μM). Ex. # refers to Example No.

T1 sequence (Q8NI77 1-467): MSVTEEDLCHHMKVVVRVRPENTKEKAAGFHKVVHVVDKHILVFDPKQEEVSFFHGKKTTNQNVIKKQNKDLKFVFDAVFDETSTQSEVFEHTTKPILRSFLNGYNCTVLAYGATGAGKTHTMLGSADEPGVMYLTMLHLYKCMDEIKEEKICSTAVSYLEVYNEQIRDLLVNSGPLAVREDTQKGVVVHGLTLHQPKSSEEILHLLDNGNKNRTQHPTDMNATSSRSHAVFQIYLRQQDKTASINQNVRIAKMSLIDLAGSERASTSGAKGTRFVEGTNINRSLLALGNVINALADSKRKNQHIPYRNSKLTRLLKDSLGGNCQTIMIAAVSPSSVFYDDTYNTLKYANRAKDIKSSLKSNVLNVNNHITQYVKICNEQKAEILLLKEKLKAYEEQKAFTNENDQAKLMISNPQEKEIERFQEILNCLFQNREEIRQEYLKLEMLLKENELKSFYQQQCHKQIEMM
T1 sequence (P02550 whole entry partner): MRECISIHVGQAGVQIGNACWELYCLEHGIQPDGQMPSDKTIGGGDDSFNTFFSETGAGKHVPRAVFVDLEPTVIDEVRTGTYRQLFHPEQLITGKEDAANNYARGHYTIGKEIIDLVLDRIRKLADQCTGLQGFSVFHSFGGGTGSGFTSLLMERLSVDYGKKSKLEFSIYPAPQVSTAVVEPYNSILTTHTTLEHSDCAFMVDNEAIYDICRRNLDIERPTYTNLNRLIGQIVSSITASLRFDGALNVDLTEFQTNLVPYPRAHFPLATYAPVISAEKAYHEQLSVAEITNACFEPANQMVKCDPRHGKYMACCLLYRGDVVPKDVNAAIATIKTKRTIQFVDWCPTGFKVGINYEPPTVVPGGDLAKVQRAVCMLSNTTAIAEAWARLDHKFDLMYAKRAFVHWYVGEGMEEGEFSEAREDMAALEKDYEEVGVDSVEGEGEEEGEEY
T1 sequence (P02554 whole entry partner): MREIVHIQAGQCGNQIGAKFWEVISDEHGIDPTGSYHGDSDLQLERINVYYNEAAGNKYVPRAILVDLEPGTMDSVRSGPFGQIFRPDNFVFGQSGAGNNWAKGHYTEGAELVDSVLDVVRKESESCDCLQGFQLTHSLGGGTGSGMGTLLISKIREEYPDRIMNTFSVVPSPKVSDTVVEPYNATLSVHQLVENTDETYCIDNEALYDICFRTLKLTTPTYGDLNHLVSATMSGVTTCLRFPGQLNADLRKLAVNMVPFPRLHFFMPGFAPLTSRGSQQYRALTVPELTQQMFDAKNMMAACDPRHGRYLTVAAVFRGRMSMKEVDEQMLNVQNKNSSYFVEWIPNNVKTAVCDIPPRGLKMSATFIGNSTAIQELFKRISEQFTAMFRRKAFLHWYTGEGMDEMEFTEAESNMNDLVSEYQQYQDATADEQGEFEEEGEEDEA

Row | IC50 [nM] | Compound
1 | 242 | CC(C)C1CN(c2cccc(NC(=O)c3ccc(NC(C)(C)CO)nc3N3CCC4(CC3)CC4)n2)CCO1 (stereo not drawn) [Example 203, 6-((1-hydroxy-2-methylpropan-2-yl)amino)-N-(6-(2-isopropylmorpholino)pyridin-2-yl)-2-(6-azaspiro[2.5]octan-6-yl)nicotinamide]
2 | 66.7 | C[C@@H]1CN(c2cccc(NC(=O)c3cnc(NS(=O)(=O)CCO)cc3N3CCC4(CC3)CC4)n2)CCO1 [Example 237]
3 | 142 | Cc1cc(NC(=O)c2ccc(NC(C)(C)CO)nc2N2CCC3(CC2)CC3)nc(N2CCC[C@@H](O)C2)c1 [Example 227, 2-(6-azaspiro[2.5]octan-6-yl)-6-((1-hydroxy-2-methyl-2-propanyl)amino)-N-(6-((3R)-3-hydroxy-1-piperidinyl)-4-methyl-2-pyridinyl)-3-pyridinecarboxamide]
4 | 79.5 | C[C@@H]1CN(c2cccc(NC(=O)c3ccc(C(O)(CO)C(F)(F)F)nc3N3CCC4(CC3)CC4)n2)CCO1 (stereo partly drawn) [Example 182, N-(6-((R)-2-methylmorpholino)pyridin-2-yl)-2-(6-azaspiro[2.5]octan-6-yl)-6-(1,1,1-trifluoro-2,3-dihydroxypropan-2-yl)nicotinamide]
5 | 70.5 | CC(C)(CO)Nc1cnc(C(=O)Nc2cccc(S(=O)(=O)N3CCCCC3)n2)c(N2CCC3(CC2)CC3)n1 [Example 100, 5-((1-hydroxy-2-methylpropan-2-yl)amino)-N-(6-(piperidin-1-ylsulfonyl)pyridin-2-yl)-3-(6-azaspiro[2.5]octan-6-yl)pyrazine-2-carboxamide]
6 | 663 | C[C@@H]1CN(c2cccc(NC(=O)c3ccc(N4C(=O)OCC4(C)C)nc3N3CCC4(CC3)CC4)n2)CCO1 [Example 165, 2-(6-azaspiro[2.5]octan-6-yl)-6-(4,4-dimethyl-2-oxo-1,3-oxazolidin-3-yl)-N-(6-((2R)-2-methyl-4-morpholinyl)-2-pyridinyl)-3-pyridinecarboxamide]
7 | 692 | Cc1cc(NC(=O)c2ccc(OCC(N)(CO)C(F)(F)F)nc2N2CCC3(CC2)CC3)nc(N2CCOCC2)c1 (stereo not drawn) [Example 208, 6-(2-amino-3,3,3-trifluoro-2-(hydroxymethyl)propoxy)-N-(4-methyl-6-morpholinopyridin-2-yl)-2-(6-azaspiro[2.5]octan-6-yl)nicotinamide]
8 | 60.2 | CC1CN(c2cccc(NC(=O)c3ccc(NC(C)(C)CO)nc3N3CCC4(CC3)CC4)n2)CCO1 (stereo not drawn) [Example 126, 6-((1-hydroxy-2-methylpropan-2-yl)amino)-N-(6-(2-methylmorpholino)pyridin-2-yl)-2-(6-azaspiro[2.5]octan-6-yl)nicotinamide]
9 | 278 | CC(C)(CO)Nc1ccc(C(=O)Nc2cc(C3CC3)cc(N3CCOCC3)n2)c(N2CCC3(CC2)CC3)n1 [Example 160, 2-(6-azaspiro[2.5]octan-6-yl)-N-(4-cyclopropyl-6-(4-morpholinyl)-2-pyridinyl)-6-((1-hydroxy-2-methyl-2-propanyl)amino)-3-pyridinecarboxamide]
10 | 2190 | CC1(C)COC(=O)N1c1cccc(NC(=O)c2ccc(N3C(=O)OCC3(C)C)nc2N2CCC3(CC2)CC3)n1 [Example 161, 2-(6-azaspiro[2.5]octan-6-yl)-6-(4,4-dimethyl-2-oxo-1,3-oxazolidin-3-yl)-N-(6-(4,4-dimethyl-2-oxo-1,3-oxazolidin-3-yl)-2-pyridinyl)-3-pyridinecarboxamide]
11 | 106 | O=C(Nc1cccc(S(=O)(=O)N2CCCCC2)n1)c1ncc(NC2(CO)CC2)nc1N1CCC2(CC1)CC2 [Example 101, 3-(6-azaspiro[2.5]oct-6-yl)-5-((1-(hydroxymethyl)cyclopropyl)amino)-N-(6-(1-piperidinylsulfonyl)-2-pyridinyl)-2-pyrazinecarboxamide]
12 | 82.1 | C[C@H]1CN(c2cccc(NC(=O)c3ccc(NC(C)(C)CO)nc3N3CCC4(CC3)CC4)n2)CCO1 [Example 132, 2-(6-azaspiro[2.5]oct-6-yl)-6-((2-hydroxy-1,1-dimethylethyl)amino)-N-(6-((2S)-2-methyl-4-morpholinyl)-2-pyridinyl)-3-pyridinecarboxamide]
